Data reported in PMC11578313, “Miniaturized Modular Click Chemistry‐enabled Rapid Discovery of Unique SARS‐CoV‐2 M^pro Inhibitors With Robust Potency and Drug‐like Profile” (Advanced Science, 2024).
Several values for one entry are separate records, joined by “and”; a condition that tells them apart may be missing. Identical values can stand only once.

Assay: In vivo pharmacokinetic study in male ICR mice (compound alone)
Details: for Plasma concentration (Calculated Concentration): mouse plasma
Experimental: The pharmacokinetics profile of the newly developed antiviral compound C5N17B was subsequently evaluated in male ICR mice that were free from specific pathogens, aiming to assess its potential for therapeutic application in vivo.
A total of six male ICR mice were randomly assigned to two groups. One group received the test drug intravenously at a dosage of 2 mg kg^−1, while the other group received oral administration at a dosage of 10 mg kg^−1. To prepare solutions of C5N17B, 2.39 mg compound was dissolved in a mixture of 0.119 mL DMSO, 0.238 mL polyoxyl 15 hydroxystearate (Solutol), and 2.027 mL normal saline. For the intravenous group, blood samples were collected from the sinus jugular into heparinized centrifugation tubes at various time points after dosing: 5, 15, 30 min, 1, 2, 4, 6, 8, and 24 h. As for the oral administration group, blood samples were collected at similar time points (0.05 mL of blood each time). The collected blood samples were then centrifuged at a speed of 4000 rpm for 10 min to separate plasma, which was subsequently stored at −20 °C until further LC‐MS analysis to determine the concentration of C5N17B. Briefly, the analysis involved adding 20 µL of plasma, sample calibration standard, quality control, and dilution quality control, and blank samples into respective wells on a 96‐well plate. Then each sample was quenched with 200 µL of internal standard (the blank sample was quenched with 200 µL of ACN: MeOH = 1:1), followed by vortex‐mixed for 5 min, and centrifuged for 0.5 min at 4000 rpm, 4 °C. Next, a 100 µL portion of supernatant was transferred to another clean 96‐well plate and diluted with 100 µL of water, vortex‐mixed for 5 min and centrifuged for 10 min at 4000 rpm, 4 °C, then the sample was injected for LC‐MS/MS analysis. All samples were quantified using an LC‐MS/MS‐AR Triple Quad 5500+ (SCIEX, USA) and the ExionLC liquid phase system. The mobile phase was 0.1% formic acid‐water/ACN with gradient elute at a flow rate of 0.8 mL mi^−1n (total time 2.20 min), and the detection wavelength was 225 nm. All blood samples were centrifuged using an Eppendorf 5424R centrifuge and quantified using an LC‐MS/MS‐AR Triple Quad 5500+ (SCIEX, USA). The pharmacokinetic parameters were calculated by WinNolin 8.2 software.

[1] = IV 2 mg/kg, individual mice 1#-3#, 2 mg/kg
[2] = IV 2 mg/kg, individual mice 1-3, 2 mg/kg
[3] = PO 10 mg/kg, individual mice 4#-6#, 10 mg/kg
[4] = PO 10 mg/kg, individual mice 4-6, 10 mg/kg

Cc1cncc(C(=O)N2C[C@H]3CC[C@@H](C2)N3[C@H](c2cccc(F)c2)c2cn(CCc3ccsc3)nn2)c1 [Compound C5N17B]
Plasma concentration (Calculated Concentration) (IV 2 mg/kg, 5 min (5 min), individual mice 1#-3#, 2 mg/kg): 185 ng/mL and 233 ng/mL
Plasma concentration (Calculated Concentration) (IV 2 mg/kg, 0.5 h (30 min), individual mice 1#-3#, 2 mg/kg): 10.2 ng/mL and 16.1 ng/mL
plasma concentration (IV 2 mg/kg, 1 h, individual mice): BQL
Plasma concentration (Calculated Concentration) (IV 2 mg/kg, 1 h, individual mice 1#-3#, 2 mg/kg): BQL (3×) and No Peak
plasma concentration (IV 2 mg/kg, 2 h, individual mice): BQL
Plasma concentration (Calculated Concentration) (IV 2 mg/kg, 2 h, individual mice 1#-3#, 2 mg/kg): BQL (3×) and No Peak
plasma concentration (IV 2 mg/kg, 4 h, individual mice): BQL
Plasma concentration (Calculated Concentration) (IV 2 mg/kg, 4 h, individual mice 1#-3#, 2 mg/kg): BQL (3×) and No Peak
plasma concentration (IV 2 mg/kg, 6 h, individual mice): BQL
Plasma concentration (Calculated Concentration) (IV 2 mg/kg, 6 h, individual mice 1#-3#, 2 mg/kg): BQL (3×) and No Peak
plasma concentration (IV 2 mg/kg, 8 h, individual mice): BQL
Plasma concentration (Calculated Concentration) (IV 2 mg/kg, 8 h, individual mice 1#-3#, 2 mg/kg): BQL (3×) and No Peak
plasma concentration (IV 2 mg/kg, 24 h, individual mice): BQL
Plasma concentration (Calculated Concentration) (IV 2 mg/kg, 24 h, individual mice 1#-3#, 2 mg/kg): BQL (3×) and No Peak
AUC0-∞ [1]: 51.4 ng·h/mL and 65.2 ng·h/mL
AUC(0-t) [1]: 49.9 ng·h/mL and 62.6 ng·h/mL
C0 [1]: 342 ng/mL and 528 ng/mL
Cl [1]: 648.77 mL/min/kg and 511.58 mL/min/kg
Cmax [1]: 185 ng/mL and 233 ng/mL
MRT0-t [1]: 6.48 min and 5.56 min
MRT0-∞ [1]: 0.123 h and 0.115 h
T1/2 [1]: 0.100 h and 0.111 h
Vz [1]: 5616 mL/kg and 4924 mL/kg
Tlast (IV 2 mg/kg, individual mice 1-3): 0.5 h
AUCINF_obs [2]: 51.379 ng·h/mL and 65.1568 ng·h/mL
AUCINF_pred [2]: 51.3513 ng·h/mL and 64.7977 ng·h/mL
AUC_%Back_Ext_obs [2]: 49.436% and 42.7448% and 48.6559%
AUC_%Back_Ext_pred [2]: 49.6744% and 42.7678% and 48.9255%
AUC_%Extrap_obs [2]: 3.513% and 2.864% and 3.964%
AUC_%Extrap_pred [2]: 3.048% and 2.812% and 3.432%
AUCall [2]: 49.9075 ng·h/mL and 62.5739 ng·h/mL
AUClast [2]: 49.9075 ng·h/mL and 62.5739 ng·h/mL
AUMCINF_obs [2]: 8.9367 h*h*ng/mL and 6.325 h*h*ng/mL and 7.498 h*h*ng/mL
AUMCINF_pred [2]: 8.682 h*h*ng/mL and 6.307 h*h*ng/mL and 7.2606 h*h*ng/mL
AUMC_%Extrap_obs [2]: 20.8781% and 14.9894% and 22.7511%
AUMC_%Extrap_pred [2]: 18.5552% and 14.7494% and 20.228%
AUMClast [2]: 7.071 h*h*ng/mL and 5.377 h*h*ng/mL and 5.792 h*h*ng/mL
C0 [2]: 342.295 ng/mL and 528.167 ng/mL
Cl_obs [2]: 648.773 mL/min/kg and 511.587 mL/min/kg
Cl_pred [2]: 412.98 mL/min/kg and 649.123 mL/min/kg and 514.422 mL/min/kg
Clast [2]: 10.2 ng/mL and 16.1 ng/mL
Clast_pred [2]: 15.8864 ng/mL and 10.0084 ng/mL and 13.8618 ng/mL
Cmax [2]: 185 ng/mL and 233 ng/mL
Cmax_D [2]: 146 kg·ng/mL/mg and 92.5 kg·ng/mL/mg and 116.5 kg·ng/mL/mg
HL_Lambda_z [2]: 0.1073 h and 0.09999 h and 0.1112 h
Lambda_z [2]: 6.932 h⁻¹ and 6.233 h⁻¹
MRTINF_obs [2]: 0.1231 h and 0.1151 h
MRTINF_pred [2]: 7.368 min and 6.72 min
MRTlast [2]: 6.462 min and 5.554 min
Vss_obs [2]: 2717.24 mL/kg and 4791.7 mL/kg and 3532.16 mL/kg
Vss_pred [2]: 2665.26 mL/kg and 4783.35 mL/kg and 3458.46 mL/kg
Vz_obs [2]: 3818.56 mL/kg and 5615.61 mL/kg and 4924.37 mL/kg
Vz_pred [2]: 3836.97 mL/kg and 5618.63 mL/kg and 4951.66 mL/kg
C0, Mean (IV 2 mg/kg, mean of mice 1#-3#): 514 ng/mL
Plasma concentration (Calculated Concentration) (PO 10 mg/kg (10MPK), 5 min (5 min), individual mice 4#-6#): 23.7 ng/mL and 30.0 ng/mL and 68.2 ng/mL and 30 ng/mL
Plasma concentration (Calculated Concentration) (PO 10 mg/kg (10MPK), 15 min, individual mice 4-6): 15.3 ng/mL and 19.3 ng/mL
Plasma concentration (Calculated Concentration) (PO 10 mg/kg (10MPK), 30 min, individual mice 4-6): 8.4 ng/mL and 4.44 ng/mL and 12 ng/mL
Plasma concentration (Calculated Concentration) (PO 10 mg/kg (10MPK), 1 hr, individual mice 4-6): 6.32 ng/mL and 10.4 ng/mL and 4.89 ng/mL
Plasma concentration (Calculated Concentration), re-analysis (PO 10 mg/kg (10MPK), 1 hr, samples marked "re", individual mice): 5.19 ng/mL
Plasma concentration (Calculated Concentration) (PO 10 mg/kg (10MPK), 2 hr, individual mice 4-6): 6.1 ng/mL and 8.71 ng/mL and 16.7 ng/mL
Plasma concentration (Calculated Concentration) (PO 10 mg/kg (10MPK), 4 hr, individual mice 4-6): 4.35 ng/mL and 7.74 ng/mL
Plasma concentration (Calculated Concentration) (PO 10 mg/kg (10MPK), 6 hr, individual mice 4-6): No Peak
Plasma concentration (Calculated Concentration) (PO 10 mg/kg (10MPK), 8 hr, individual mice 4-6): No Peak
Plasma concentration (Calculated Concentration) (PO 10 mg/kg (10MPK), 24 hr, individual mice 4-6): No Peak
T1/2 (PO 10 mg/kg (10MPK), individual mice 4#-6#): 3.46 h and 2.36 h and 4.84 h
plasma concentration (PO 10 mg/kg, 0.5 h, individual mice 4#-6#, 10 mg/kg): 8.4 ng/mL and 12 ng/mL
plasma concentration (PO 10 mg/kg, 2 h, individual mice 4#-6#, 10 mg/kg): 6.1 ng/mL
plasma concentration (PO 10 mg/kg, 6 h, individual mice 4#-6#, 10 mg/kg): BQL
plasma concentration (PO 10 mg/kg, 8 h, individual mice 4#-6#): BQL
plasma concentration (PO 10 mg/kg, 24 h, individual mice 4#-6#): BQL
AUC0-∞ [3]: 54.0 ng·h/mL and 102 ng·h/mL
AUC(0-t) [3]: 45.5 ng·h/mL and 47.9 ng·h/mL
Cmax [3]: 30.0 ng/mL and 68.2 ng/mL and 23.7 ng/mL
F [3]: 14.30% and 15.08%
MRT0-t [3]: 114 min and 110 min
MRT0-∞ [3]: 5.23 h and 3.09 h and 6.69 h
Tlag (PO 10 mg/kg, individual mice 4-6): 0 h
Cmax (PO 10 mg/kg, individual mice 4-6, full-precision output, 10 mg/kg): 30 ng/mL and 68.2 ng/mL and 23.7 ng/mL
AUCINF_obs [4]: 54.0464 ng·h/mL and 102.004 ng·h/mL
AUCINF_pred [4]: 53.9915 ng·h/mL and 94.7713 ng·h/mL
AUC_%Extrap_obs [4]: 48.9815% and 15.8821% and 53.0006%
AUC_%Extrap_pred [4]: 44.7444% and 15.7964% and 49.4138%
AUCall [4]: 45.4628 ng·h/mL and 47.9412 ng·h/mL
AUClast [4]: 45.4628 ng·h/mL and 47.9412 ng·h/mL
AUMCINF_obs [4]: 311.492 h*h*ng/mL and 166.93 h*h*ng/mL and 682.098 h*h*ng/mL
AUMCINF_pred [4]: 270.44 h*h*ng/mL and 166.412 h*h*ng/mL and 602.65 h*h*ng/mL
AUMC_%Extrap_obs [4]: 84.1842% and 48.3677% and 87.065%
AUMC_%Extrap_pred [4]: 81.7834% and 48.2072% and 85.3597%
AUMClast [4]: 49.2649 h*h*ng/mL and 86.1896 h*h*ng/mL and 88.2296 h*h*ng/mL
Cl_F_obs [4]: 3083.77 mL/min/kg and 1633.93 mL/min/kg
Cl_F_pred [4]: 3030.33 mL/min/kg and 3086.92 mL/min/kg and 1758.62 mL/min/kg
Clast [4]: 5.85 ng/mL and 2.52 ng/mL and 7.74 ng/mL
Clast_pred [4]: 4.934 ng/mL and 2.504 ng/mL and 6.705 ng/mL
Cmax_D [4]: 3 kg·ng/mL/mg and 6.82 kg·ng/mL/mg and 2.37 kg·ng/mL/mg
HL_Lambda_z [4]: 3.457 h and 2.361 h and 4.842 h
Lambda_z [4]: 0.2005 h⁻¹ and 0.2936 h⁻¹ and 0.1432 h⁻¹
MRTINF_obs [4]: 5.229 h and 3.089 h and 6.687 h
